Data as given in paper PMC10580313, “A Chemoproteomic Approach to Elucidate the Mechanism of Action of 6-Azasteroids with Unique Activity in Mycobacteria” (ACS Infectious Diseases, 2023).

Assays:
Mtb = experiment: MIC of 6-azasteroid alone, Mtb; assay type: cell-based, Mycobacterium tuberculosis; settings: (MIC99 reported as micromolar)
Mtb CDC1551 = experiment: Intracellular ATP levels under BDQ cotreatment; settings: 96 h
Mtb (CDC1551) [1] = tested on: Mtb (CDC1551); set-up: method as in PMID 31012313; settings: normoxic conditions; cited from earlier work
Mm (BAA-535) [2] = tested on: Mm (BAA-535); set-up: method as in PMID 31012313; settings: normoxic conditions; cited from earlier work
Mtb and Mm = experiment: BDQ potentiation MIC99 assay, species not given; assay type: cell-based; settings: 6-azasteroid at 20 μM; species not stated
THP-1 cells = experiment: Cytotoxicity assay (Alamar Blue), THP-1; assay type: cell-based; settings: Homo sapiens, THP-1, 72 h, read-out: Mammalian Cell IC50, THP1
HepG2 cells = experiment: Cytotoxicity assay (Alamar Blue), HepG2; assay type: cell-based, human; settings: Homo sapiens, HepG2, 72 h, read-out: Mammalian Cell IC50, HepG2
[3] = tested on: mammalian cells (HepG2 and THP-1); experiment: Cytotoxicity in mammalian cells, cell line not given; settings: read-out: IC50 in mammalian cells
Mtb (CDC1551) [4] = experiment: BDQ potentiation MIC99 microbroth assay, Mtb; assay type: cell-based, Mycobacterium tuberculosis; settings: 6-azasteroid fixed at 20 μM; relative to BDQ MIC99 without azasteroid
Mtb (CDC1551) [5] = experiment: ROS sensitivity (CellROX Green) with or without cumene hydroperoxide; assay type: cell-based, Mycobacterium tuberculosis
Mm (BAA-535) [6] = experiment: BDQ potentiation MIC99 microbroth assay, Mm; assay type: cell-based, Mycobacterium marinum; settings: 6-azasteroid fixed at 20 μM; relative to BDQ MIC99 without azasteroid

With CCCN1CC2C3CCC(C(=O)Nc4cc(C(C)(C)C)ccc4C(C)(C)C)[C@@]3(C)CCC2[C@@]2(C)CCC(=O)C=C12 (stereo partly shown) [compound 2] the “Mtb MIC Alone” value (Mtb) was 37 µM, the “cellular ATP concentration in combination with BDQ, relative to BDQ treatment” value (Mtb CDC1551; 6-azasteroid 5 and 20 μM plus BDQ) was “less than 50%” and the “ATP production, 6-azasteroid alone” value (Mtb CDC1551; 20 or 5 μM, no BDQ) was “not greatly affected”. For the same compound, the “potentiation of the activity of isoniazid and BDQ, Mtb” value (Mtb (CDC1551) [1]) was 8 fold, the “potentiation of the activity of isoniazid and BDQ, Mm” value (Mm (BAA-535) [2]) was 8 fold and the “reduction in BDQ MIC99” value (Mtb and Mm) was “greater than 8 fold”. For the same compound, the IC50 (THP-1 cells) was 24 µM, the IC50 (HepG2 cells) was 21 µM and the IC50 [3] was 25 µM. The “Fold ∆ of BDQ MIC, Mtb” value (Mtb (CDC1551) [4]) was 8 fold, the “intracellular oxidants after exogenous CHP, 6-azasteroid pretreatment” value (Mtb (CDC1551) [5]; 20 μM pretreatment 6 h, then 5 mM CHP 30 min, versus not pretreated) was “greater accumulation of intracellular oxidants” and the “effect on intracellular ROS levels, 6-azasteroid alone” value (Mtb (CDC1551) [5]; 20 μM, 6 h, no peroxide) was “negligible effect”. For the same compound, the “Fold ∆ of BDQ MIC, Mm” value (Mm (BAA-535) [6]) was 9 fold.
